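Where inhibition never reached the appropriate level, the endpoint shown equals the highest concentration tested. Otherwise, values were interpolated linearly from a five-concentration, 48-hour dose response in 96-well plates. TGI: total growth inhibition.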
Legend:
Experiment in all cases: growth of human tumour cells (NCI), 48 h
BT-549 breast = test system: BT-549 breast
DU-145 prostate = test system: DU-145 prostate
HCT-116 colon = test system: HCT-116 colon
HCT-15 colon = test system: HCT-15 colon
KM12 colon = test system: KM12 colon
NCI-H23 lung = test system: NCI-H23 lung
NCI/ADR-RES ovarian = test system: NCI/ADR-RES ovarian
OVCAR-4 ovarian = test system: OVCAR-4 ovarian
SK-MEL-2 melanoma = test system: SK-MEL-2 melanoma
SW-620 colon = test system: SW-620 colon
U251 CNS = test system: U251 CNS
MDA-N = test system: MDA-N
MCF7 breast = test system: MCF7 breast

C=CCON(C(=O)OC(C)(C)C)C(C)(C)C
TGI (BT-549 breast): > 100 µM
TGI (DU-145 prostate): > 100 µM
TGI (HCT-116 colon): > 100 µM
TGI (HCT-15 colon): > 100 µM
TGI (KM12 colon): > 100 µM
TGI (NCI-H23 lung): > 100 µM
TGI (NCI/ADR-RES ovarian): > 100 µM
TGI (OVCAR-4 ovarian): > 100 µM
TGI (SK-MEL-2 melanoma): > 100 µM
TGI (SW-620 colon): > 100 µM
TGI (U251 CNS): > 100 µM

CCCCCCCCOCC(COC(=O)CCCCCCC)OC(=O)CCCCCCC (configuration not stated)
TGI (HCT-116 colon): > 100 µM
TGI (HCT-15 colon): > 100 µM
TGI (NCI-H23 lung): > 100 µM
TGI (OVCAR-4 ovarian): > 100 µM
TGI (SW-620 colon): > 100 µM
TGI (U251 CNS): > 100 µM

O=S(=O)(/N=C(\NO)Nc1ccc(Cl)cc1)c1cc(C(F)(F)F)cc(C(F)(F)F)c1
TGI (BT-549 breast): 33.3 µM
TGI (DU-145 prostate): 44.1 µM
TGI (HCT-116 colon): 31.2 µM
TGI (HCT-15 colon): 38.7 µM
TGI (KM12 colon): 41.1 µM
TGI (MDA-N): 36.1 µM
TGI (NCI-H23 lung): 36.6 µM
TGI (NCI/ADR-RES ovarian): 58.1 µM
TGI (OVCAR-4 ovarian): 31.6 µM
TGI (SK-MEL-2 melanoma): 32.7 µM
TGI (SW-620 colon): > 100 µM
TGI (U251 CNS): 31.4 µM

CCOC(=O)C1(C/C=C\CBr)CCCC1=O (configuration not stated)
TGI (BT-549 breast): 80.3 µM
TGI (DU-145 prostate): 73.2 µM
TGI (HCT-116 colon): 40 µM
TGI (HCT-15 colon): 66.5 µM
TGI (KM12 colon): > 100 µM
TGI (MCF7 breast): 55.2 µM
TGI (NCI-H23 lung): 56.7 µM
TGI (NCI/ADR-RES ovarian): 57.2 µM
TGI (OVCAR-4 ovarian): > 100 µM
TGI (SK-MEL-2 melanoma): > 100 µM
TGI (SW-620 colon): 54.9 µM
TGI (U251 CNS): 48.7 µM

CC(C)(C)OC(=O)N(CCCCNC(=O)C(F)(F)F)CCCNC(=O)C(F)(F)F
TGI (BT-549 breast): > 100 µM
TGI (DU-145 prostate): > 100 µM
TGI (HCT-116 colon): > 100 µM
TGI (HCT-15 colon): > 100 µM
TGI (KM12 colon): > 100 µM
TGI (MCF7 breast): > 100 µM
TGI (NCI-H23 lung): > 100 µM
TGI (NCI/ADR-RES ovarian): > 100 µM
TGI (OVCAR-4 ovarian): > 100 µM
TGI (SK-MEL-2 melanoma): > 100 µM
TGI (SW-620 colon): > 100 µM
TGI (U251 CNS): > 100 µM

O=C(c1ccccc1)C1(Br)S(=O)(=O)OCCOS1(=O)=O
TGI (HCT-116 colon): > 100 µM
TGI (HCT-15 colon): > 100 µM
TGI (NCI-H23 lung): > 100 µM
TGI (OVCAR-4 ovarian): > 100 µM
TGI (SK-MEL-2 melanoma): > 100 µM
TGI (SW-620 colon): > 100 µM
TGI (U251 CNS): > 100 µM

Cc1[nH]n(-c2nc3c(c(=O)[nH]2)CCCC3)c(=O)c1CCO
TGI (DU-145 prostate): > 100 µM
TGI (HCT-116 colon): > 100 µM
TGI (HCT-15 colon): > 100 µM
TGI (KM12 colon): > 100 µM
TGI (MCF7 breast): > 100 µM
TGI (MDA-N): > 100 µM
TGI (NCI-H23 lung): > 100 µM
TGI (NCI/ADR-RES ovarian): > 100 µM
TGI (OVCAR-4 ovarian): > 100 µM
TGI (SK-MEL-2 melanoma): > 100 µM
TGI (SW-620 colon): > 100 µM
TGI (U251 CNS): > 100 µM

c1cc(-c2ccc(-c3ccsc3)s2)cs1
TGI (DU-145 prostate): > 100 µM
TGI (HCT-116 colon): > 100 µM
TGI (HCT-15 colon): > 100 µM
TGI (MCF7 breast): > 100 µM
TGI (MDA-N): > 100 µM
TGI (NCI-H23 lung): 61 µM
TGI (NCI/ADR-RES ovarian): 87.5 µM
TGI (OVCAR-4 ovarian): 57.5 µM
TGI (SW-620 colon): > 100 µM
TGI (U251 CNS): 49.7 µM

CCOC(=O)c1c(NC(=O)c2ccccc2)c(C#N)c2n1CCCCC2
TGI (DU-145 prostate): > 100 µM
TGI (HCT-116 colon): > 100 µM
TGI (HCT-15 colon): > 100 µM
TGI (KM12 colon): > 100 µM
TGI (MCF7 breast): > 100 µM
TGI (MDA-N): > 100 µM
TGI (NCI-H23 lung): > 100 µM
TGI (NCI/ADR-RES ovarian): > 100 µM
TGI (OVCAR-4 ovarian): > 100 µM
TGI (U251 CNS): > 100 µM

Oc1c(N2CCCCC2)cc(-c2cc(N3CCCCC3)c(O)c3ccccc23)c2ccccc12
TGI (DU-145 prostate): 49 µM
TGI (HCT-116 colon): 40.7 µM
TGI (HCT-15 colon): > 100 µM
TGI (KM12 colon): > 100 µM
TGI (MCF7 breast): 59.2 µM
TGI (MDA-N): 33.5 µM
TGI (NCI-H23 lung): 79.7 µM
TGI (NCI/ADR-RES ovarian): > 100 µM
TGI (OVCAR-4 ovarian): 44.9 µM
TGI (SK-MEL-2 melanoma): 91.6 µM
TGI (SW-620 colon): 94.2 µM
TGI (U251 CNS): > 100 µM

O=C(O)CCCc1ccc2c(c1)CC1(C2)Cc2cc3c(cc2C1)CCCC3
TGI (HCT-116 colon): 8.11 µM
TGI (HCT-15 colon): 23.7 µM
TGI (KM12 colon): 33.6 µM
TGI (MCF7 breast): 94.2 µM
TGI (MDA-N): 39.9 µM
TGI (NCI-H23 lung): 49.2 µM
TGI (NCI/ADR-RES ovarian): 87.4 µM
TGI (OVCAR-4 ovarian): 45.6 µM
TGI (SK-MEL-2 melanoma): 35.3 µM
TGI (U251 CNS): 32.9 µM

COC1(OC)c2occc2C(=N)c2ccc(=O)oc21
TGI (BT-549 breast): > 100 µM
TGI (DU-145 prostate): > 100 µM
TGI (HCT-116 colon): > 100 µM
TGI (HCT-15 colon): > 100 µM
TGI (MCF7 breast): > 100 µM
TGI (MDA-N): > 100 µM
TGI (NCI-H23 lung): > 100 µM
TGI (OVCAR-4 ovarian): > 100 µM
TGI (SK-MEL-2 melanoma): > 100 µM
TGI (SW-620 colon): > 100 µM
TGI (U251 CNS): > 100 µM

Cc1cc(C)c(-c2no/c(=N\S(=O)(=O)c3ccc(Cl)cc3)o2)c(C)c1
TGI (DU-145 prostate): > 100 µM
TGI (HCT-116 colon): > 100 µM
TGI (HCT-15 colon): > 100 µM
TGI (KM12 colon): > 100 µM
TGI (MCF7 breast): 56.1 µM
TGI (MDA-N): > 100 µM
TGI (NCI-H23 lung): > 100 µM
TGI (NCI/ADR-RES ovarian): > 100 µM
TGI (OVCAR-4 ovarian): > 100 µM
TGI (SK-MEL-2 melanoma): > 100 µM
TGI (SW-620 colon): > 100 µM
TGI (U251 CNS): > 100 µM

CCOC(=O)C1S(=O)(=O)OCCOS1(=O)=O
TGI (HCT-116 colon): > 100 µM
TGI (KM12 colon): > 100 µM
TGI (NCI-H23 lung): > 100 µM
TGI (OVCAR-4 ovarian): > 100 µM
TGI (SK-MEL-2 melanoma): > 100 µM
TGI (SW-620 colon): > 100 µM

C[C@@H]1CC[C@]2(C)C3(C)CC[C@]2(OC3=O)[C@@]12CC(c1ccoc1)OC2=O (some centres not stated)
TGI (DU-145 prostate): > 100 µM
TGI (HCT-116 colon): 32.1 µM
TGI (HCT-15 colon): > 100 µM
TGI (KM12 colon): > 100 µM
TGI (MCF7 breast): > 100 µM
TGI (MDA-N): > 100 µM
TGI (NCI-H23 lung): > 100 µM
TGI (NCI/ADR-RES ovarian): > 100 µM
TGI (OVCAR-4 ovarian): 48.3 µM
TGI (SK-MEL-2 melanoma): > 100 µM
TGI (SW-620 colon): 74.2 µM
TGI (U251 CNS): > 100 µM

CC(C)(CN1CCCCC1)C(=O)/C=C/c1ccc(Br)cc1
TGI (HCT-116 colon): 8.08 µM
TGI (HCT-15 colon): > 24.7 µM
TGI (KM12 colon): 11.9 µM
TGI (NCI-H23 lung): 9.11 µM
TGI (OVCAR-4 ovarian): 19.3 µM
TGI (SK-MEL-2 melanoma): 9.04 µM
TGI (SW-620 colon): 6.83 µM
TGI (U251 CNS): 8.11 µM

C1CCC(N=C2N(C3CCCCC3)C(=NC3CCCCC3)N2C2CCCCC2)CC1
TGI (HCT-116 colon): > 100 µM
TGI (HCT-15 colon): > 100 µM
TGI (KM12 colon): > 100 µM
TGI (NCI-H23 lung): > 100 µM
TGI (OVCAR-4 ovarian): > 100 µM
TGI (SK-MEL-2 melanoma): > 100 µM
TGI (SW-620 colon): > 100 µM
TGI (U251 CNS): > 100 µM

O=C1c2ccccc2N2OC3(N4CCOCC4)CCCC3C12c1ccccc1 (configuration not stated)
TGI (HCT-116 colon): > 100 µM
TGI (HCT-15 colon): > 100 µM
TGI (NCI-H23 lung): > 100 µM
TGI (OVCAR-4 ovarian): > 100 µM
TGI (SW-620 colon): > 100 µM
TGI (U251 CNS): > 100 µM

COc1cc(C2c3cc4c(cc3OC(NN)C2C)OCO4)cc(OC)c1O (configuration not stated)
TGI (BT-549 breast): 51.3 µM
TGI (DU-145 prostate): > 100 µM
TGI (HCT-116 colon): 20.1 µM
TGI (HCT-15 colon): 34.2 µM
TGI (KM12 colon): 41.7 µM
TGI (MCF7 breast): > 100 µM
TGI (NCI-H23 lung): > 100 µM
TGI (NCI/ADR-RES ovarian): 94 µM
TGI (OVCAR-4 ovarian): > 100 µM
TGI (SK-MEL-2 melanoma): 13.1 µM
TGI (SW-620 colon): > 100 µM
TGI (U251 CNS): 33.5 µM

CCOC(=O)/C(=C/c1ccccn1)C(=O)c1ccccc1
TGI (HCT-116 colon): 27.3 µM
TGI (HCT-15 colon): 29.3 µM
TGI (KM12 colon): 26.4 µM
TGI (NCI-H23 lung): 30.5 µM
TGI (OVCAR-4 ovarian): 36.8 µM
TGI (SK-MEL-2 melanoma): 28.9 µM
TGI (SW-620 colon): 32.6 µM
TGI (U251 CNS): 27.4 µM

NNC(=O)C(=O)NN=C(C(Cl)(Cl)CO)C(Cl)(Cl)CO
TGI (HCT-116 colon): 66.1 µM
TGI (HCT-15 colon): 75.5 µM
TGI (KM12 colon): > 100 µM
TGI (NCI-H23 lung): 92.9 µM
TGI (OVCAR-4 ovarian): > 100 µM
TGI (SK-MEL-2 melanoma): > 100 µM
TGI (SW-620 colon): 40.3 µM
TGI (U251 CNS): 53.2 µM

CC1(C)O[C@@H]2[C@@H](COC(C)(C)O[C@H]2C2SCCCS2)O1
TGI (DU-145 prostate): > 100 µM
TGI (HCT-116 colon): > 100 µM
TGI (HCT-15 colon): > 100 µM
TGI (KM12 colon): > 100 µM
TGI (MCF7 breast): > 100 µM
TGI (MDA-N): > 100 µM
TGI (NCI-H23 lung): > 100 µM
TGI (NCI/ADR-RES ovarian): > 100 µM
TGI (OVCAR-4 ovarian): > 100 µM
TGI (SK-MEL-2 melanoma): > 100 µM
TGI (SW-620 colon): > 100 µM
TGI (U251 CNS): > 100 µM
